Test results reported in ChEMBL document CHEMBL2331312, “Dimerized linear mimics of a natural cyclopeptide (TMC-95A) are potent noncovalent inhibitors of the eukaryotic 20S proteasome” (J Med Chem, 2013).
The source made the active and inactive calls. No cut-off for these calls is given here.

Tests used:
[1] = target: Cathepsin B (Homo sapiens) (UniProt P07858); assay: Inhibition of human cathepsin B using Suc-LLVY-AMC as substrate assessed as remaining enzyme activity at 20 uM incubated for 15 mins prior to substrate addition measured for 30 mins by fluorescence assay
[2] = target: Proteasome Macropain subunit (Homo sapiens, UniProt P49721); assay: Inhibition of trypsin-like activity of human constitutive 20s proteasome beta-2 subunit using Boc-LRR-AMC as substrate assessed as remaining activity incubated for 15 mins prior to substrate addition measured after 45 mins by fluorescence assay
[3] = target: T1, Proteasome Macropain subunit PRE2 (Saccharomyces cerevisiae S288c, UniProt P30656)
T1 sequence (P30656 whole entry): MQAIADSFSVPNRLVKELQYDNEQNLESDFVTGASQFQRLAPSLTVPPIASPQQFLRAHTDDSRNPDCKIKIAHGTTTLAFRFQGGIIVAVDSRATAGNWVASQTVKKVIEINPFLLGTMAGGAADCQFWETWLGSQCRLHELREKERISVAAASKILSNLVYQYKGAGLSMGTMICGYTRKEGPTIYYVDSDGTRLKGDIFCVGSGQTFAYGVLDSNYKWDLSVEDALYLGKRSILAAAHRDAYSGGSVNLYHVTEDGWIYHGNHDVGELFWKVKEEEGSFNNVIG
Description: Inhibition of chymotrypsin-like activity of yeast 20S proteasome beta-5 subunit using Suc-LLVY-AMC as substrate measured up to 45 mins by fluorescence assay

[4] = target: T2, Proteasome Macropain subunit MB1 (Homo sapiens, UniProt P28074); assay: (§1) Noncompetitive inhibition of chymotrypsin-like activity of human constitutive 20s proteasome beta-5 subunit using Suc-LLVY-AMC as substrate assessed as inhibition constant for dissociation of enzyme-inhibitor complex incubated for 15 mins prior to substrate addition measured after 45 mins by fluorescence assay
T2 sequence (P28074 whole entry): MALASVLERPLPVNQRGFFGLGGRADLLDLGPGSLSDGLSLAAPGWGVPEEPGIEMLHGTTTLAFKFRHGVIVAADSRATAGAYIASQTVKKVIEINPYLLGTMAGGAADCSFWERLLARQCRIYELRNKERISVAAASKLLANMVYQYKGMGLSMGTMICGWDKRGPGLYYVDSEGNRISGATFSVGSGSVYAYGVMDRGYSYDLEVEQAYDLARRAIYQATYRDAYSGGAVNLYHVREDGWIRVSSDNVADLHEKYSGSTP

[5] = target: T2, Proteasome Macropain subunit MB1
Description: (§2) Inhibition of chymotrypsin-like activity of human constitutive 20s proteasome beta-5 subunit using Suc-LLVY-AMC as substrate assessed as remaining activity incubated for 15 mins prior to substrate addition measured after 45 mins by fluorescence assay

[6] = target: T3, Calpain-1 catalytic subunit (Homo sapiens) (UniProt P07384); assay: Inhibition of human calpain 1 using Suc-LLVY-AMC as substrate assessed as remaining enzyme activity at 20 uM incubated for 5 mins prior to substrate addition measured for 30 mins by fluorescence assay
T3 sequence (whole entry): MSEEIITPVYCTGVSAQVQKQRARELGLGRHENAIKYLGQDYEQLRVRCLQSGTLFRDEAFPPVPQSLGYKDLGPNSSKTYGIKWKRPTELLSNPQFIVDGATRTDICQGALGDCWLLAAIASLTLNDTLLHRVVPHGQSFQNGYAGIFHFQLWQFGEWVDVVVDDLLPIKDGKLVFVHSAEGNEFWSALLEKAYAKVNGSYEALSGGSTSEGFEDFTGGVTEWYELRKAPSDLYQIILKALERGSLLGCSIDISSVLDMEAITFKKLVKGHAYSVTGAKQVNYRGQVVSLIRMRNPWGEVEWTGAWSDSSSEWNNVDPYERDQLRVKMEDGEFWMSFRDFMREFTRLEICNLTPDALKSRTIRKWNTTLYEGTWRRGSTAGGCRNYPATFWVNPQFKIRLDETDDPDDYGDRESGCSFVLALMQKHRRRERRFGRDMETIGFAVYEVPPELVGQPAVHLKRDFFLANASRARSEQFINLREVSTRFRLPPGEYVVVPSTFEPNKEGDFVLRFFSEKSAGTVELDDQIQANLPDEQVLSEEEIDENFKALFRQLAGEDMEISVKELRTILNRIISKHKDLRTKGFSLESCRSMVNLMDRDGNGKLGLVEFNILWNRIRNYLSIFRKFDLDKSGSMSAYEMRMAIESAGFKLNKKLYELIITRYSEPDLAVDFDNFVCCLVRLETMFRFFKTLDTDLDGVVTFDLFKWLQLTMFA

[7] = target: T2, Proteasome Macropain subunit MB1; assay: as §1, with “enzyme-substrate-inhibitor” for “enzyme-inhibitor”
[8] = target: T2, Proteasome Macropain subunit MB1; remark: listed apart in the source
Description: Inhibition of chymotrypsin-like activity of proteasome beta-5 subunit in HEK293 cells using Suc-LLVY-Glo as substrate incubated for 2 hrs prior to substrate addition measured after 10 mins by cell-based proteasome-Glo beta5 assay

[9] = Half life of the compound in RPMI culture medium in presence of 20% fetal calf serum at 37 degC by HPLC analysis; type: physicochemical; conditions: cattle, RPMI culture medium with 20% fetal calf serum
[10] = target: T2, Proteasome Macropain subunit MB1; assay: as §1, with “Mixed type” for “Noncompetitive”, “enzyme-substrate-inhibitor” for “enzyme-inhibitor”
[11] = target: T2, Proteasome Macropain subunit MB1; assay: as §1, with “Mixed type” for “Noncompetitive”
[12] = target: T2, Proteasome Macropain subunit MB1; remark: listed apart in the source
Description: Competitive inhibition of chymotrypsin-like activity of human constitutive 20s proteasome beta-5 subunit using Suc-LLVY-AMC as substrate assessed as inhibition constant for dissociation of enzyme-inhibitor complex incubated for 15 mins prior to substrate addition measured after 45 mins by fluorescence assay

[13] = target: T2, Proteasome Macropain subunit MB1; remark: listed apart in the source
Description: as §2

[14] = target: T4, Proteasome component C5 (Homo sapiens, UniProt P20618)
T4 sequence (P20618 whole entry): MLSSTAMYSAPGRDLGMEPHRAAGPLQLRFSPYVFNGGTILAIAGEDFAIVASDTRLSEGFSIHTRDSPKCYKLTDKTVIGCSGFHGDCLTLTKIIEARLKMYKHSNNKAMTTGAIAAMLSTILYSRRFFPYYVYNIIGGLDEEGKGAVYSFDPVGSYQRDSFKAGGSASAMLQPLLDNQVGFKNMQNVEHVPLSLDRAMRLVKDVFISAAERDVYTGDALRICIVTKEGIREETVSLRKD
Description: Inhibition of postacid activity of human constitutive 20s proteasome beta-1 subunit using Z-LLE-betaNA as substrate assessed as remaining activity incubated for 15 mins prior to substrate addition measured after 45 mins by fluorescence assay

[15] = target: T5, Proteasome component C5 (Homo sapiens) (UniProt P20618); assay: Inhibition of postacid activity of 20s proteasome beta-1 subunit in HEK293 cells using Z-nLPnLD-Glo as substrate at 10 uM incubated for 2 hrs prior to substrate addition measured after 10 mins by cell-based proteasome-Glo beta1 assay
T5 sequence (whole entry): T4 sequence (P20618 whole entry)

[16] = target: T5, Proteasome component C5 (Homo sapiens); assay: Inhibition of postacid activity of 20s proteasome beta-1 subunit in HEK293 cells using Z-nLPnLD-Glo as substrate at 20 uM incubated for 2 hrs prior to substrate addition measured after 10 mins by cell-based proteasome-Glo beta1 assay

Sequence of Proteasome Macropain subunit (P49721 whole entry): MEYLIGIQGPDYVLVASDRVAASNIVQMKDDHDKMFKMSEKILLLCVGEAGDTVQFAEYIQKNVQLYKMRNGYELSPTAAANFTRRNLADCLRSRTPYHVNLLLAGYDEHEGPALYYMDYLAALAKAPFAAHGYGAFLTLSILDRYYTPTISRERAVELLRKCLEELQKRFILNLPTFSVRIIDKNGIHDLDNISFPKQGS

Row | Compound | inhibition [1] | IC50 [2] | IC50 [3] [nM] | Ki [4] [nM] | IC50 [5] [nM] | inhibition [6] | Ki [7] [nM] | IC50 [8] [nM] | half-life [9] [h] | Ki [10] [nM] | Ki [11] [nM] | Ki [12] [nM] | IC50 [13] | IC50 [14] | inhibition [15] [%] | inhibition [16] [%]
1 | C[C@H](NC(=O)[C@@H](N)Cc1ccc(OCc2ccccc2)cc1)C(=O)N[C@@H](C[C@]1(O)C(=O)Nc2ccccc21)C(=O)NCc1ccccc1 | inactive | Not Active | 9400 | 24500 | 11600 | inactive | 24500 |  |  |  |  |  |  |  |  | 
2 | C[C@H](NC(=O)[C@H](Cc1ccc(OCc2ccccc2)cc1)NC(=O)OC(C)(C)C)C(=O)N[C@@H](C[C@]1(O)C(=O)Nc2ccccc21)C(=O)NCc1ccccc1 | inactive |  | 1500 |  | 3190 | inactive |  | 7970 | 50 | 5030 | 2430 |  |  |  |  | 
3 | C/C=C\NC(=O)[C@H]1NC(=O)[C@H](CC(N)=O)CC(=O)[C@@H](NC(=O)C(=O)[C@@H](C)CC)Cc2ccc(O)c(c2)-c2cccc3c2NC(=O)[C@@]3(O)[C@@H]1O |  |  |  |  | 5.4 |  |  |  |  |  |  | 2.3 |  |  |  | 
4 | COC(=O)CCCCCNC(=O)CCCCCNC(=O)CCCCCNC(=O)CCCCC(=O)OC | inactive | Not Active |  |  |  | inactive |  |  |  |  |  |  | Not Active | Not Active |  | 
5 | COC(=O)CCCCCNC(=O)CCCCCNC(=O)CCCCCNC(=O)CCCCCNC(=O)CCCCCNC(=O)CCCCCNC(=O)OC(C)(C)C | inactive | Not Active |  |  |  | inactive |  |  |  |  |  |  | Not Active | Not Active |  | 
6 | C[C@H](NC(=O)[C@H](Cc1ccc(OCc2ccccc2)cc1)NC(=O)CCCCCNC(=O)CCCCCNC(=O)CCCCCNC(=O)CCCCCNC(=O)CCCCCNC(=O)CCCCC(=O)N[C@@H](Cc1ccc(OCc2ccccc2)cc1)C(=O)N[C@@H](C)C(=O)N[C@@H](C[C@]1(O)C(=O)Nc2ccccc21)C(=O)NCc1ccccc1)C(=O)N[C@@H](C[C@]1(O)C(=O)Nc2ccccc21)C(=O)NCc1ccccc1 | inactive |  |  |  | 22.7 | inactive |  | 472 |  |  |  | 11.4 |  |  | 25 | 
7 | C[C@H](NC(=O)[C@H](Cc1ccc(OCc2ccccc2)cc1)NC(=O)CCCCCNC(=O)CCCCCNC(=O)CCCCCNC(=O)CCCCCNC(=O)CCCCC(=O)N[C@@H](Cc1ccc(OCc2ccccc2)cc1)C(=O)N[C@@H](C)C(=O)N[C@@H](C[C@]1(O)C(=O)Nc2ccccc21)C(=O)NCc1ccccc1)C(=O)N[C@@H](C[C@]1(O)C(=O)Nc2ccccc21)C(=O)NCc1ccccc1 | inactive |  |  |  | 25.9 | inactive |  | 756 |  |  |  | 10.8 |  |  | 37 | 
8 | C[C@H](NC(=O)[C@H](Cc1ccc(OCc2ccccc2)cc1)NC(=O)CCCCCNC(=O)CCCCCNC(=O)CCCCCNC(=O)CCCCC(=O)N[C@@H](Cc1ccc(OCc2ccccc2)cc1)C(=O)N[C@@H](C)C(=O)N[C@@H](C[C@]1(O)C(=O)Nc2ccccc21)C(=O)NCc1ccccc1)C(=O)N[C@@H](C[C@]1(O)C(=O)Nc2ccccc21)C(=O)NCc1ccccc1 | inactive |  |  |  | 25.8 | inactive |  | 541 | 50 |  |  | 10.3 |  |  |  | 40
9 | C[C@H](NC(=O)[C@H](Cc1ccc(OCc2ccccc2)cc1)NC(=O)CCCCCNC(=O)CCCCCNC(=O)CCCCCNC(=O)OC(C)(C)C)C(=O)N[C@@H](C[C@]1(O)C(=O)Nc2ccccc21)C(=O)NCc1ccccc1 | inactive |  |  |  | 460 | inactive |  | 252 | 19 | 316 | 101 |  |  |  |  | 
10 | C[C@H](NC(=O)[C@H](Cc1ccc(OCc2ccccc2)cc1)NC(=O)CCCCCNC(=O)CCCCCNC(=O)CCCCCNC(=O)CCCCCNC(=O)OC(C)(C)C)C(=O)N[C@@H](C[C@]1(O)C(=O)Nc2ccccc21)C(=O)NCc1ccccc1 | inactive |  |  |  | 707 | inactive |  |  |  | 200 | 67 |  |  |  |  | 
11 | C[C@H](NC(=O)[C@H](Cc1ccc(OCc2ccccc2)cc1)NC(=O)CCCCCNC(=O)CCCCCNC(=O)CCCCCNC(=O)CCCCCNC(=O)CCCCC(=O)NCCCCCC(=O)NCCCCCC(=O)NCCCCCC(=O)NCCCCCC(=O)N[C@@H](Cc1ccc(OCc2ccccc2)cc1)C(=O)N[C@@H](C)C(=O)N[C@@H](C[C@]1(O)C(=O)Nc2ccccc21)C(=O)NCc1ccccc1)C(=O)N[C@@H](C[C@]1(O)C(=O)Nc2ccccc21)C(=O)NCc1ccccc1 | inactive |  |  |  | 20 | inactive |  |  |  |  |  | 6 |  |  |  | 
12 | C[C@H](NC(=O)[C@H](Cc1ccc(OCc2ccccc2)cc1)NC(=O)CCCCCNC(=O)CCCCCNC(=O)CCCCCNC(=O)CCCCC(=O)NCCCCCC(=O)NCCCCCC(=O)NCCCCCC(=O)N[C@@H](Cc1ccc(OCc2ccccc2)cc1)C(=O)N[C@@H](C)C(=O)N[C@@H](C[C@]1(O)C(=O)Nc2ccccc21)C(=O)NCc1ccccc1)C(=O)N[C@@H](C[C@]1(O)C(=O)Nc2ccccc21)C(=O)NCc1ccccc1 | inactive |  |  |  | 19.1 | inactive |  | 476 |  |  |  | 10.6 |  |  | 30 | 
